Data taken from patent US20050090522A1 (priority 2001, published 2005).
Read-outs that look alike come from different tables or passages of the source.

System: HIV-1
Test: HIV-1 single-round infectious luciferase reporter virus (pseudotype) assay in HeLa CD4 CCR5 cells
Assay type: cell-based
Method in brief: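 Reporter pseudovirus produced in 293 cells infected HeLa cells expressing CD4/CCR5 at MOI ~0.01, with compound present at <10 μM final. Infection was quantified as luciferase luminescence after 72 h.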

[1] = Human immunodeficiency virus 1, HeLa-CD4/CCR5, read-out: EC50 Group from TABLE 1, HeLa CD4 CCR5 cells, single-round infectious luciferase reporter virus
[2] = Human immunodeficiency virus 1, HeLa-CD4/CCR5, read-out: EC50 Group from Table 1, Table 2-1, HeLa CD4 CCR5 cells, single-round luciferase reporter virus
[3] = Human immunodeficiency virus 1, HeLa-CD4/CCR5, read-out: EC50 Group from Table 1, Table 4, HeLa CD4 CCR5 cells, single-round luciferase reporter virus

SMILES | EC50 [1] [nM] | EC50 [2] [nM] | other results
CCN(CC)C(=O)c1cnc(-c2ncc(OC)c3c(C(=O)C(=O)N4CCN(C(=O)c5ccccn5)CC4)c[nH]c23)cn1 [Example 184, 1-picolinoyl-4-[(4-methoxy-7-(2-diethylaminocarbonyl-pyrazin-5-yl)-6-azaindol-3-yl)-oxoacetyl]piperazine] | < 1000 |  | 
COc1cnc(-c2cnc(N3CCCC3)cn2)c2[nH]cc(C(=O)C(=O)N3CCN(C(=O)c4ccccn4)CC3)c12 [Example 185] | < 1000 |  | 
COc1cnc(-c2cnc3ccccc3n2)c2[nH]cc(C(=O)C(=O)N3CCN(C(=O)c4ccccn4)CC3)c12 [Example 186, 1-picolinoyl-4-[(4-methoxy-7-(quinoxakin-2-yl)-6-azaindol-3-yl)-oxoacetyl]piperazine] | < 1000 |  | 
COc1cnc(-n2ccc(C(F)(F)F)n2)c2[nH]cc(C(=O)C(=O)N3CCN(C(=O)c4ccccc4)CC3)c12 [Example 192, 1-benzoyl-4-[(4-methoxy-7-(3-trifluoromethylpyrazol-1-yl)-6-azaindol-3-yl)-oxoacetyl]piperazine] | < 1000 |  | 
COc1cnc(-c2cnccn2)c2[nH]cc(C(=O)C(=O)N3CCN(C(=O)c4ccccn4)C(C)C3)c12 (centres unmarked) [Example 194, 2-methyl-1-picolinoyl-4-[(4-methoxy-7-(pyrazin-2-yl)-6-azaindol-3-yl)-oxoacetyl]piperazine] |  | < 1000 | 
COc1cnc(-c2cnccn2)c2[nH]cc(C(=O)C(=O)N3CCN(C(=O)c4cnccn4)CC3)c12 [Example 195] | < 1000 |  | 
COc1cnc(-c2cnccn2)c2[nH]cc(C(=O)C(=O)N3CCN(C(=O)c4ccno4)CC3)c12 [Example 196] | < 1000 |  | 
COc1cnc(-c2cnccn2)c2[nH]cc(C(=O)C(=O)N3CCN(C(=O)c4csnn4)CC3)c12 [Example 197] | < 1000 |  | 
COc1cnc(-c2cnccn2)c2[nH]cc(C(=O)C(=O)N3CCN(C(=O)c4nc(N)n[nH]4)CC3)c12 [Example 198] | < 1000 |  | 
CCCOC(=O)N1CCN(C(=O)C(=O)c2c[nH]c3c(-c4cnccn4)ncc(OC)c23)CC1 [Example 199] | < 1000 |  | 
COc1cnc(-c2cnccn2)c2[nH]cc(C(=O)C(=O)N3CCN(C(=O)c4ncccc4C)CC3)c12 [Example 200] | < 1000 |  | 
COc1cnc(-c2cnccn2)c2[nH]cc(C(=O)C(=O)N3CCN(C(=O)c4cccc(C)n4)CC3)c12 [Example 201] | < 1000 |  | 
CCOC(=O)c1cc(-c2ccnc3c(C(=O)C(=O)N4CCN(C(=O)c5ccccc5)CC4)c[nH]c23)n[nH]1 [Example 202, 5-{3-[2-(4-Benzoyl-piperazin-1-yl)-2-oxo-acetyl]-1H-pyrrolo[3,2-b]pyridin-7-yl}-2H-pyrazole-3-carboxylic acid ethyl ester] |  |  | EC50 [3]: < 1000 nM
O=C(C(=O)N1CCN(C(=O)c2ccccc2)CC1)c1c[nH]c2c(-c3cc4ccccc4o3)ccnc12 [Example 203, 1-(7-benzofuran-2-yl-1H-pyrrolo[3,2-b]pyridin-3-yl)-2-(4-benzoyl-piperazin-1-yl)-ethane-1,2-dione] |  |  | EC50 [3]: < 1000 nM
CCOC(=O)c1cc(-c2ncc(F)c3c(C(=O)C(=O)N4CCN(C(=O)c5ccccc5)CC4)c[nH]c23)n[nH]1 [Example 209] | < 1000 |  | 
O=C(NCCN1CCOCC1)c1cc(-c2ncc(F)c3c(C(=O)C(=O)N4CCN(C(=O)c5ccccc5)CC4)c[nH]c23)n[nH]1 [Example 213] | < 1000 |  | 
O=C(C(=O)N1CCN(C(=O)c2ccccc2)CC1)c1c[nH]c2c(-n3cncn3)ncc(F)c12 [Example 215] | < 1000 |  | 
O=C(C(=O)N1CCN(C(=O)c2ccccc2)CC1)c1c[nH]c2c(-n3ccnc3)ncc(F)c12 [Example 218] | < 1000 |  | 
O=C(C(=O)N1CCN(C(=O)c2ccccc2)CC1)c1c[nH]c2c(-n3cccn3)ncc(F)c12 [Example 219] | < 1000 |  | 

SMILES | EC50 [1] [nM] | EC50 [2] [nM] | other results
CCCc1ccn(-c2ncc(OC)c3c(C(=O)C(=O)N4CCN(C(=O)c5ccccc5)[C@H](C)C4)c[nH]c23)n1 [Example 231, (R)-1-benzoyl-2-methyl-4-[(4-methoxy-7-(3-propyl-pyrazol-1-yl)-6-azaindol-3-yl)-oxoacetyl]piperazine] |  | < 1000 | 
COc1cnc(-n2ccc(C3CCC3)n2)c2[nH]cc(C(=O)C(=O)N3CCN(C(=O)c4ccccc4)[C@H](C)C3)c12 [Example 232, (R)-1-benzoyl-2-methyl-4-[(4-methoxy-7-(3-cycloputyl-pyrazol-1-yl)-6-azaindol-3-yl)-oxoacetyl]piperazine] |  | < 1000 | 
CCOc1ccn(-c2ncc(OC)c3c(C(=O)C(=O)N4CCN(C(=O)c5ccccc5)[C@H](C)C4)c[nH]c23)n1 [Example 233, (R)-1-benzoyl-2-methyl-4-[(4-methoxy-7-(3-ethoxy-pyrazol-1-yl)-6-azaindol-3-yl)-oxoacetyl]piperazine] |  | < 1000 | 
COc1cnc(-n2ccc(CCC(=O)O)n2)c2[nH]cc(C(=O)C(=O)N3CCN(C(=O)c4ccccc4)[C@H](C)C3)c12 [Example 234, (R)-1-benzoyl-2-methyl-4-[(4-methoxy-7-(3-(2-hydroxylcarbonylethan-1-yl)-pyrazol-1-yl)-6-azaindol-3-yl)-oxoacetyl]piperazine] |  | < 1000 | 
COc1cnc(-n2ccc(C(C)O)n2)c2[nH]cc(C(=O)C(=O)N3CCN(C(=O)c4ccccc4)[C@H](C)C3)c12 (stereo partly drawn) [Example 235, (R)-1-benzoyl-2-methyl-4-[(4-methoxy-7-(3-(1-hydroxylethyl)-pyrazol-1-yl)-6-azaindol-3-yl)-oxoacetyl]piperazine] |  | < 1000 | 
COc1cnc(-n2cc(CO)cn2)c2[nH]cc(C(=O)C(=O)N3CCN(C(=O)c4ccccc4)C[C@H]3C)c12 [Example 237, (R)-1-benzoyl-3-methyl-4-[(4-methoxy-7-(4-hydroxylmethyl-pyrazol-1-yl)-6-azaindol-3-yl)-oxoacetyl]piperazine] |  | < 1000 | 
COCc1ccn(-c2ncc(OC)c3c(C(=O)C(=O)N4CCN(C(=O)c5ccccc5)[C@H](C)C4)c[nH]c23)n1 [Example 238, (R)-1-benzoyl-2-methyl-4-[(4-methoxy-7-(3-methoxymethyl-pyrazol-1-yl)-6-azaindol-3-yl)-oxoacetyl]piperazine] |  | < 1000 | 
COc1cnc(-n2ccc(CN(C)C)n2)c2[nH]cc(C(=O)C(=O)N3CCN(C(=O)c4ccccc4)[C@H](C)C3)c12 [Example 239, (R)-1-benzoyl-2-methyl-4-[(4-methoxy-7-(3-(N,N-dimethylamino)methyl-pyrazol-1-yl)-6-azaindol-3-yl)-oxoacetyl]piperazine] |  | < 1000 | 
COc1cnc(-n2nccc2C)c2[nH]cc(C(=O)C(=O)N3CCN(C(=O)c4ccccc4)CC3)c12 [Example 240, 1-benzoyl-4-[(4-methoxy-7-(5-methyl-pyrazol-1-yl)-6-azaindol-3-yl)-oxoacetyl]piperazine] | < 1000 |  | 
COc1cnc(-n2nccc2C)c2[nH]cc(C(=O)C(=O)N3CCN(C(=O)c4ccccc4)[C@H](C)C3)c12 [Example 242, (R)-1-benzoyl-2-methyl-4-[(4-methoxy-7-(5-methyl-pyrazol-1-yl)-6-azaindol-3-yl)-oxoacetyl]piperazine] |  | < 1000 | 
COc1cnc(-n2ccc(C(C)(C)C)n2)c2[nH]cc(C(=O)C(=O)N3CCN(C(=O)c4ccccc4)[C@H](C)C3)c12 [Example 243, (R)-1-benzoyl-2-methyl-4-[(4-methoxy-7-(3-t-butyl-pyrazol-1-yl)-6-azaindol-3-yl)-oxoacetyl]piperazine] |  | < 1000 | 
COc1cnc(-n2ccc(C(F)(F)F)n2)c2[nH]cc(C(=O)C(=O)N3CCN(C(=O)c4ccccc4)[C@H](C)C3)c12 [Example 244, (R)-1-benzoyl-2-methyl-4-[(4-methoxy-7-(3-trifluoromethyl-pyrazol-1-yl)-6-azaindol-3-yl)-oxoacetyl]piperazine] |  | < 1000 | 
COc1cnc(-n2nnc3ccccc32)c2[nH]cc(C(=O)C(=O)N3CCN(C(=O)c4ccccc4)[C@H](C)C3)c12 [Example 246, (R)-1-benzoyl-2-methyl-4-[(4-methoxy-7-(1,2,3-benzotriazol-1-yl)-6-azaindol-3-yl)-oxoacetyl]piperazine] |  | < 1000 | 
COc1cnc(-n2ccc(C(C)(C)O)n2)c2[nH]cc(C(=O)C(=O)N3CCN(C(=O)c4ccccc4)CC3)c12 [Example 247, 1-benzoyl-4-[(4-methoxy-7-(3-(1-hydroxyl-1-methylethyl)-pyrazol-1-yl)-6-azaindol-3-yl)-oxoacetyl]piperazine] | < 1000 |  | 
COc1cnc(-n2ccc(CCO)n2)c2[nH]cc(C(=O)C(=O)N3CCN(C(=O)c4ccccc4)CC3)c12 [Example 248, 1-benzoyl-4-[(4-methoxy-7-(3-(3-hydroxylethyl)-pyrazol-1-yl)-6-azaindol-3-yl)-oxoacetyl]piperazine] | < 1000 |  | 
COc1cnc(-n2ccc(C(C)C)n2)c2[nH]cc(C(=O)C(=O)N3CCN(C(=O)c4ccccc4)CC3)c12 [Example 249, 1-benzoyl-4-[(4-methoxy-7-(3-iso-propyl-pyrazol-1-yl)-6-azaindol-3-yl)-oxoacetyl]piperazine] | < 1000 |  | 
CCCCCc1ccn(-c2ncc(OC)c3c(C(=O)C(=O)N4CCN(C(=O)c5ccccc5)CC4)c[nH]c23)n1 [Example 250, 1-benzoyl-4-[(4-methoxy-7-(3-n-pentyl-pyrazol-1-yl)-6-azaindol-3-yl)-oxoacetyl]piperazine] | < 1000 |  | 
COc1cnc(-n2nccc2N)c2[nH]cc(C(=O)C(=O)N3CCN(C(=O)c4ccccc4)CC3)c12 [Example 252, 1-benzoyl-4-[(4-methoxy-7-(5-amino-pyrazol-1-yl)-6-azaindol-3-yl)-oxoacetyl]piperazine] | < 1000 |  | 
COc1cnc(-n2ccc(N)n2)c2[nH]cc(C(=O)C(=O)N3CCN(C(=O)c4ccccc4)[C@H](C)C3)c12 [Example 253, (R)-1-benzoyl-2-methyl-4-[(4-methoxy-7-(3-amino-pyrazol-1-yl)-6-azaindol-3-yl)-oxoacetyl]piperazine] |  | < 1000 | 
